Measurements published in patent US20160024108A1, “USE OF DITHIINE-TETRACARBOXIMIDES FOR CONTROLLING BACTERIAL HARMFUL ORGANISMS IN USEFUL PLANTS” (BAYER CROPSCIENCE AKTIENGESELLSCHAFT, priority 2013, published 2016).

System: Pseudomonas syringae pv tomato
Assay: Field trial against bacterial speck on tomato (Spain, 2011), artificial inoculation
Type: in vivo
Details: formulation containing 400 g per liter at 500 g ai/ha; in comparison with untreated plots and copper oxychloride standard
Procedure: A standard experiment was conducted in Spain in 2011 to evaluate the performance of BCS-BB98685 against bacterial speck of tomato caused by the bacteria Pseudomonas syringae pv tomato. Tomato plants were grown under plastic tunnel. Plots were artificially inoculated with a suspension of bacteria and treated with different experimental chemical formulations using a conventional sprayer. Four chemical sprays were applied within 7 days intervals. One artificial inoculation was performed one day after the third application. Disease assessment was done on 3 tomato plants per plot, 11 days after the last application. Infected leaflets were sorted in 3 classes according to a severity scale (Class 1=1 spot/leaflet; Class 2=2-5 spots/leaflet; Class 3=>5 spots/leaflet). Then results were expressed as severity index and transformed in efficacy values using the Abbott formula.

## Cn1c(=O)c2sc3c(=O)n(C)c(=O)c3sc2c1=O [Compound I-1, 2,6-dimethyl-1H,5H-[1,4]dithiino[2,3-c:5,6-c′]dipyrrole-1,3,5,7(2H,6H)-tetrone]
  level of bacterial infection on tomatoes: significantly reduce the level of bacterial infection on tomatoes
